Measurements: patent publication US12281102B2, “Inhibitors of APOL1 and methods of using same” (Vertex Pharmaceuticals Incorporated, priority 2020, dated 2025)

Target: T1, G1 APOL1 (Homo sapiens, UniProt O14791, I384M/S342G)
T1 construct: expressed in transfected cells
T1 sequence (O14791 28-398 S342G/I384M): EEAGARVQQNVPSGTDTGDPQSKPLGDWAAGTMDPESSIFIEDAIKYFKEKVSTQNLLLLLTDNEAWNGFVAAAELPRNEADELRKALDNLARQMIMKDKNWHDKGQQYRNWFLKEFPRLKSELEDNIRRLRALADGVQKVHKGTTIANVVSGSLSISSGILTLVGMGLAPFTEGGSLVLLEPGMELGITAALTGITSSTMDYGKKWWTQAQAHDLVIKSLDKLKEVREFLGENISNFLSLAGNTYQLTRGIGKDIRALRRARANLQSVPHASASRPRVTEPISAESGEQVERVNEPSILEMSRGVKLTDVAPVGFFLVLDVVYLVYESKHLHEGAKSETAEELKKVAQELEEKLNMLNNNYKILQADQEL
Test: Acute APOL1 Thallium Assay with inducible stable clones of HEK 293 cells
Type: cell-based
Details: HEK 293 T-Rex inducible stable clone expressing G1 APOL1; read-out: Thallium Assay (IC50)
In short: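 A tetracycline-inducible HEK293 T-Rex clone (G1 DC3.25) expressing G1 APOL1 was plated at 26,000 cells/well, with tetracycline added at plating to induce expression. Cells were loaded with an AM-ester thallium-sensitive dye and stimulated with Tl+. Pore activity was read as the FLIPR Tetra fluorescence increase from Tl+ influx.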

| Structure (SMILES) | IC50 |
| --- | --- |
| C[C@H](NC(=O)OC(C)(C)C)C(=O)NC[C@H]1C[C@H](c2c(-c3ccc(F)cc3)[nH]c3c(F)cc(F)cc32)C1 [Compound 227] | > 1 µM |
| NS(=O)(=O)CCC(=O)N[C@H]1C[C@H](c2c(-c3ccc(F)cc3)[nH]c3c(F)cc(F)cc32)C1 [Compound 116] | 0.25 to 1 µM |
| CNC1(C(=O)N[C@H]2C[C@H](c3c(-c4ccc(F)cc4)[nH]c4c(F)cc(F)cc43)C2)CC1 [Compound 141] | 0.25 to 1 µM |
| CC(O)CCNS(=O)(=O)NC[C@H]1C[C@H](c2c(-c3ccc(F)cc3)[nH]c3c(F)cc(F)cc32)C1 (stereo partly shown) [Compound 356] | 0.25 to 1 µM |
| CN(C)S(=O)(=O)NC[C@H]1C[C@H](c2c(-c3ccc(F)cc3)[nH]c3c(F)cc(F)cc32)C1 [Compound 370, 3-[3-[(dimethylsulfamoylamino)methyl]cyclobutyl]-5,7-difluoro-2-(4-fluorophenyl)-1H-indole] | > 1 µM |
| CC(NC(=O)O[C@H]1C[C@H](c2c(-c3ccc(F)cc3)[nH]c3c(F)cc(F)cc32)C1)C(N)=O (mixture of isomers) [Compound 456, [3-[5,7-difluoro-2-(4-fluorophenyl)-1H-indol-3-yl]cyclobutyl]N-(2-amino-1-methyl-2-oxo-ethyl)carbamate] | > 1 µM |
| CC(C(=O)N[C@H]1C[C@@H](c2c(-c3ccc(F)cc3)[nH]c3c(F)cc(F)cc32)C1)N(C)C (mixture of isomers) [Compound 77] | > 1 µM |
| O=C1CC(C(=O)N[C@H]2C[C@H](c3c(-c4ccc(F)cc4)[nH]c4c(F)cc(F)cc43)C2)C(=O)N1 (stereo partly shown) [Compound 128] | < 0.25 µM |
| O=C(CN1CCCC1)N[C@H]1C[C@H](c2c(-c3ccc(F)cc3)[nH]c3c(F)cc(F)cc32)C1 [Compound 112] | > 1 µM |
| O=C(CC(=O)N1CCOCC1)N[C@H]1C[C@H](c2c(-c3ccc(F)cc3)[nH]c3c(F)cc(F)cc32)C1 [Compound 120] | > 1 µM |
| CN(C)CCC(=O)N[C@H]1C[C@@H](c2c(-c3ccc(F)cc3)[nH]c3c(F)cc(F)cc32)C1 [Compound 59] | > 1 µM |
| Cc1cc[nH]c1C(=O)NC1CC(Cc2c(-c3ccc(F)cc3)[nH]c3c(F)cc(F)cc23)C1 (stereo not shown) [Compound 171] | > 1 µM |
| CC1(NCC2CC(c3c(-c4ccc(F)cc4)[nH]c4c(F)cc(F)cc34)C2)COC1 (stereo not shown) [Compound 404] | > 1 µM |
| O=c1[nH]c2ccc(S(=O)(=O)N[C@H]3C[C@H](c4c(-c5ccc(F)cc5)[nH]c5c(F)cc(F)cc54)C3)cc2[nH]1 [Compound 153] | > 1 µM |
| O=C1CC(CC(=O)N[C@H]2C[C@@H](c3c(-c4ccc(F)cc4)[nH]c4c(F)cc(F)cc43)C2)CC(=O)N1 [Compound 72] | > 1 µM |
| O=C(Cn1cnnc1)N[C@H]1C[C@H](c2c(-c3ccc(F)cc3)[nH]c3c(F)cc(F)cc32)C1 [Compound 139] | > 1 µM |
| Cn1ccc(CC(=O)NC[C@H]2C[C@@H](c3c(-c4ccc(F)cc4)[nH]c4c(F)cc(F)cc43)C2)n1 [Compound 278] | > 1 µM |
| CC(C(=O)N[C@H]1C[C@H](c2c(-c3ccc(F)cc3)[nH]c3c(F)cc(F)cc32)C1)n1ccnc1 (mixture of isomers) [Compound 105] | > 1 µM |

| Structure (SMILES) | IC50 |
| --- | --- |
| CN1CCC(CC(=O)N[C@H]2C[C@H](c3c(-c4ccc(F)cc4)[nH]c4c(F)cc(F)cc43)C2)C1 (stereo partly shown) [Compound 110] | > 1 µM |
| CS(=O)(=O)CCCC(=O)N[C@H]1C[C@@H](c2c(-c3ccc(F)cc3)[nH]c3c(F)cc(F)cc32)C1 [Compound 32] | > 1 µM |
| O=S(=O)(N[C@H]1C[C@@H](c2c(-c3ccc(F)cc3)[nH]c3c(F)cc(F)cc32)C1)c1cn[nH]c1 [Compound 84] | > 1 µM |
| O=C(NC[C@H]1C[C@H](c2c(-c3ccc(F)cc3)[nH]c3c(F)cc(F)cc32)C1)c1ccncn1 [Compound 288] | > 1 µM |
| Cc1cccc(-c2[nH]c3c(F)cc(F)cc3c2C2CC(N)C2)c1 (mixture of isomers) [Compound 5, 3-[5,7-difluoro-2-(m-tolyl)-1H-indol-3-yl]cyclobutanamine] | 0.25 to 1 µM |
| CC(C)(C)OC(=O)NC1(C(=O)NC[C@H]2C[C@H](c3c(-c4ccc(F)cc4)[nH]c4c(F)cc(F)cc43)C2)CCC1 [Compound 286] | > 1 µM |
| CC(C)(O)C(=O)N[C@H]1C[C@H](c2c(-c3ccc(F)cc3)[nH]c3c(F)cc(F)cc32)C1 [Compound 133] | < 0.25 µM |
| O=C(C1CC1)N1CCC(Cc2c(-c3ccc(F)cc3)[nH]c3c(F)cc(F)cc23)C1 (stereo not shown) [Compound 445, Cyclopropyl-[3-[[5,7-difluoro-2-(4-fluorophenyl)-1H-indol-3-yl]methyl]pyrrolidin-1-yl]methanone] | > 1 µM |
| Cc1ccc(C(=O)NC2CC(Cc3c(-c4ccc(F)cc4)[nH]c4c(F)cc(F)cc34)C2)[nH]1 (stereo not shown) [Compound 172] | > 1 µM |
| CC(C)(O)CC(=O)NC1CC(Cc2c(-c3ccc(F)cc3)[nH]c3c(F)cc(F)cc23)C1 (stereo not shown) [Compound 160, N-[3-[[5,7-difluoro-2-(4-fluorophenyl)-1H-indol-3-yl]methyl]cyclobutyl]-3-hydroxy-3-methylbutanamide] | 0.25 to 1 µM |
| O=C(N[C@H]1C[C@@H](c2c(-c3ccc(F)cc3)[nH]c3c(F)cc(F)cc32)C1)OCc1ccccc1 [Compound 27, benzyl((1s,3s)-3-(5,7-difluoro-2-(4-fluorophenyl)-1H-indol-3-yl)cyclobutyl)carbamate] | > 1 µM |
| Cn1nccc1CC(=O)N[C@H]1C[C@H](c2c(-c3ccc(F)cc3)[nH]c3c(F)cc(F)cc32)C1 [Compound 115] | > 1 µM |
| CC(CC(=O)N[C@H]1C[C@H](c2c(-c3ccc(F)cc3)[nH]c3c(F)cc(F)cc32)C1)N1CCOCC1 (mixture of isomers) [Compound 102] | > 1 µM |
| CNCCC(=O)N[C@H]1C[C@H](c2c(-c3ccc(F)cc3)[nH]c3c(F)cc(F)cc32)C1 [Compound 134] | 0.25 to 1 µM |
| CN(CC(=O)NC[C@H]1C[C@@H](c2c(-c3ccc(F)cc3)[nH]c3c(F)cc(F)cc32)C1)S(C)(=O)=O [Compound 305] | > 1 µM |
| N#CCC(=O)N[C@H]1C[C@H](c2c(-c3ccc(F)cc3)[nH]c3c(F)cc(F)cc32)C1 [Compound 129] | < 0.25 µM |
| O=C(Cc1ccncn1)NC[C@H]1C[C@H](c2c(-c3ccc(F)cc3)[nH]c3c(F)cc(F)cc32)C1 [Compound 251] | > 1 µM |
| O=C1CC(C(=O)N[C@H]2C[C@H](c3c(-c4ccc(F)cc4)[nH]c4c(F)cc(F)cc43)C2)CN1 (stereo partly shown) [Compound 140] | > 1 µM |

The next lines start with the values.

| IC50 | Structure (SMILES) |
| --- | --- |
| > 1 µM | O=C1CCC(C(=O)NC[C@H]2C[C@@H](c3c(-c4ccc(F)cc4)[nH]c4c(F)cc(F)cc43)C2)CN1 (stereo partly shown) [Compound 328] |
| > 1 µM | O=C(Cn1cnnc1)NC[C@H]1C[C@@H](c2c(-c3ccc(F)cc3)[nH]c3c(F)cc(F)cc32)C1 [Compound 307] |
| > 1 µM | O=C(NC[C@H]1C[C@H](c2c(-c3ccc(F)cc3)[nH]c3c(F)cc(F)cc32)C1)C1(O)CC1 [Compound 283] |
| 0.25 to 1 µM | CC(=O)N[C@@H](C)C(=O)NC[C@H]1C[C@H](c2c(-c3ccc(F)cc3)[nH]c3c(F)cc(F)cc32)C1 [Compound 208] |
| < 0.25 µM | O=C(NC[C@H]1C[C@H](c2c(-c3ccc(F)cc3)[nH]c3c(F)cc(F)cc32)C1)[C@@H]1C[C@@H](F)CN1 [Compound 205] |
| 0.25 to 1 µM | O=C(NC[C@H]1C[C@H](c2c(-c3ccc(F)cc3)[nH]c3c(F)cc(F)cc32)C1)[C@H]1NCC[C@@H]1O [Compound 222] |
| 0.25 to 1 µM | C[C@@H](O)CNCC1CC(c2c(-c3ccc(F)cc3)[nH]c3c(F)cc(F)cc23)C1 (stereo partly shown) [Compound 383] |
| > 1 µM | C[C@@H](O)[C@@H](CO)NCC1CC(c2c(-c3ccc(F)cc3)[nH]c3c(F)cc(F)cc23)C1 (stereo partly shown) [Compound 408] |
| > 1 µM | Fc1ccc(-c2[nH]c3c(F)cc(F)cc3c2C2CC(CN[C@H]3CCOC3)C2)cc1 (stereo partly shown) [Compound 398] |
| 0.25 to 1 µM | O=C(NC[C@H]1C[C@@H](c2c(-c3ccc(F)cc3)[nH]c3c(F)cc(F)cc32)C1)C(F)F [Compound 219] |
| > 1 µM | O=C(CN1CCCC1)NC[C@H]1C[C@@H](c2c(-c3ccc(F)cc3)[nH]c3c(F)cc(F)cc32)C1 [Compound 327] |
| < 0.25 µM | N[C@H](CO)C(=O)NC[C@H]1C[C@H](c2c(-c3ccc(F)cc3)[nH]c3c(F)cc(F)cc32)C1 [Compound 201] |
| > 1 µM | O=C(NC[C@H]1C[C@H](c2c(-c3ccc(F)cc3)[nH]c3c(F)cc(F)cc32)C1)[C@H]1CCN1 [Compound 245] |
| > 1 µM | O=C(CC1CS(=O)(=O)C1)NC[C@H]1C[C@H](c2c(-c3ccc(F)cc3)[nH]c3c(F)cc(F)cc32)C1 [Compound 261] |
| > 1 µM | O=C(NC[C@H]1C[C@H](c2c(-c3ccc(F)cc3)[nH]c3c(F)cc(F)cc32)C1)[C@@H]1COCCN1 [Compound 276] |
| > 1 µM | O=C(NC[C@H]1C[C@H](c2c(-c3ccc(F)cc3)[nH]c3c(F)cc(F)cc32)C1)c1ccc[nH]1 [Compound 314] |
| < 0.25 µM | CC[C@H](N)C(=O)NC[C@H]1C[C@H](c2c(-c3ccc(F)cc3)[nH]c3c(F)cc(F)cc32)C1 [Compound 197] |
| > 1 µM | CO[C@@H](C)C(=O)NC[C@H]1C[C@H](c2c(-c3ccc(F)cc3)[nH]c3c(F)cc(F)cc32)C1 [Compound 270] |
| < 0.25 µM | OC[C@H]1C[C@H](c2c(-c3ccc(F)cc3)[nH]c3c(F)cc(F)cc32)C1 [Compound 425, [3-[5,7-difluoro-2-(4-fluorophenyl)-1H-indol-3-yl]cyclobutyl]methanol] |
